{"source": "patent US10800755B2", "about": "“2,6-disubstituted pyridine derivative” (Sumitomo Dainippon Pharma Co., Ltd., priority 2017, dated 2020)", "key": {"human D2 receptor": {"biological_target": "human D2 receptor (Homo sapiens (Human), UniProt P14416)", "sequence (P14416 whole entry)": "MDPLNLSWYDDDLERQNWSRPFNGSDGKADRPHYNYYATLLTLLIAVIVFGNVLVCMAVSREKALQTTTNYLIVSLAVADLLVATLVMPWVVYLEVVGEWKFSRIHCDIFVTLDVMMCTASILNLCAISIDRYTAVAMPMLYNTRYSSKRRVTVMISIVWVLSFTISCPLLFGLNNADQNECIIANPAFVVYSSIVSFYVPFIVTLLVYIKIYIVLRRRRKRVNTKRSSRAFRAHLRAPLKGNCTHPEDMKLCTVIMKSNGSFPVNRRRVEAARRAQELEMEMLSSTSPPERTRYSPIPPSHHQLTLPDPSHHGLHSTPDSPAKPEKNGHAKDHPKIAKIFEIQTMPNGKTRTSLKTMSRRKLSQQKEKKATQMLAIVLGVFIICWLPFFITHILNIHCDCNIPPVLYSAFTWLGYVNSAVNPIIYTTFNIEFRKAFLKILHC", "assay": "Test 2: binding activity to human D2 receptor ([3H] spiperone, CHO cell membrane)", "details": "[3H] spiperone; read-out: D2 binding affinity (Ki value)"}, "Wistar male rat": {"test_system": "Wistar male rat", "assay": "Test 8: forced swimming test", "assay_type": "in vivo", "details": "oral, once a day, 5 mg/kg administration", "protocol": "Test 8: Forced Swimming Test\nThe antidepressive effect of the present compound was evaluated in a manner mentioned below.\nThe test was carried out with 8-week-old Wistar male rat in 4-day test schedule. On the 1st day of the test, the rat was put into a transparent plastic bath filled with 5.8 L of tap water at 25° C., and made to swim for 15 minutes as swimming training. After the swimming training, the rat was rapidly wiped to remove the attached waterdrop, and returned to the home cage. 15 minutes after the training, the present compound or a positive control compound was orally administered with methylcellulose suspension to the rat. On the next day of the training and the day after next, the present compound or the positive control compound was orally administered with methylcellulose suspension to the rat once a day. On the 4th day, the swimming test was carried out. On the day of the swimming test, the present compound or the positive control compound was orally administered with methylcellulose suspension to the rat one hour before the start of the test. The swimming test was carried out with the rat in the above-mentioned water bath for 5 minutes. The swimming movement of the individual was recorded with a video from the side of the water bath, and the immobility time was measured with a stop-watch. […]"}, "[1]": {"assay": "Test 3-1: metabolic stability test of human liver microsome (0.1 mg/mL)", "assay_type": "in vitro ADME", "details": "test compound 0.1 μmol/L, 37° C., 30 minutes", "outline": "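Compound at 0.1 μmol/L incubated 30 min at 37 °C with human liver microsomes (0.1 mg/mL) and NADPH (3.2 mmol/L) in 25 mmol/L phosphate buffer, pH 7.4. Remaining parent measured by LC-MS; stability given as −ln(residual ratio)/time/microsome concentration (mL/min/mg protein).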"}, "human D4 receptor": {"biological_target": "human D4 receptor (Homo sapiens (Human), UniProt P21917)", "sequence (P21917 whole entry)": "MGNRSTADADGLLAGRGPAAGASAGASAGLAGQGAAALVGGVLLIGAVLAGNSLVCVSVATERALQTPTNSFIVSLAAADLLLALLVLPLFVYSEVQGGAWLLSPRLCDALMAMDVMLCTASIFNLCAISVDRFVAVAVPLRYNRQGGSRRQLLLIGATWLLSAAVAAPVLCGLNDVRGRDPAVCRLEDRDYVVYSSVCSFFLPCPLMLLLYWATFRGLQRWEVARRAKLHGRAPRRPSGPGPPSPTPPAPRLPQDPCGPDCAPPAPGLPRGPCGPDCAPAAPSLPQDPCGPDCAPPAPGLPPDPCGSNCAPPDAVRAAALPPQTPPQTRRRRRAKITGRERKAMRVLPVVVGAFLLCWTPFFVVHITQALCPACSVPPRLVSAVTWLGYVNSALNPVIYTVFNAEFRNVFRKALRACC", "assay": "Test 1: agonistic activity for human D4 receptor (aequorin/Gα16 luminescence in CHO-K1 cell)", "assay_type": "cell-based"}, "human 5-HT1A receptor [2]": {"biological_target": "T1, human 5-HT1A receptor (Homo sapiens (Human), UniProt P08908)", "T1 sequence (P08908 whole entry)": "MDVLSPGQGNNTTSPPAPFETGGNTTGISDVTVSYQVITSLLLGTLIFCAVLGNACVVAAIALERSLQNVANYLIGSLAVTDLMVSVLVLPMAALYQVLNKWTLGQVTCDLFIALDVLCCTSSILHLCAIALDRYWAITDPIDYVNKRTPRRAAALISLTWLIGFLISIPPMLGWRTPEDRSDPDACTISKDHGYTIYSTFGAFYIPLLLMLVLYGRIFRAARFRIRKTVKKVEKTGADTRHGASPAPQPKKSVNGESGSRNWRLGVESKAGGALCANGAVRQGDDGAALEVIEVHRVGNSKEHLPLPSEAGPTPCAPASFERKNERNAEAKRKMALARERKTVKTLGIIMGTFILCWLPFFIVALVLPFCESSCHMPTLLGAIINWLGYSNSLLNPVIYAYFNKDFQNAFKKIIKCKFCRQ", "assay": "Test 2: binding activity to human 5-HT1A receptor ([3H] 8-OH-DPAT, CHO cell membrane)", "details": "[3H] 8-OH-DPAT; read-out: 5-HT1A binding affinity (Ki value)"}, "human 5-HT1A receptor [3]": {"biological_target": "T1, human 5-HT1A receptor", "assay": "Test 1: agonistic activity for human 5-HT1A receptor (aequorin/Gα16 luminescence in CHO-K1 cell)", "assay_type": "cell-based", "outline": "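Aequorin and Gα16 transiently co-expressed with each receptor in CHO-K1 cells, cultured 24 h at 37 °C. Compounds added from DMSO solution; agonism read as change in luminescence.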"}, "[4]": {"assay": "Test 4-1: predictive test of human half-life (monkey distribution volume, serum unbound fraction, Test 3-1 stability)", "details": "in vivo, predicted using Test 3-1 metabolic stability", "protocol": "Test 4-1: Predictive Test of Human Half-Life\n0.01 mol/L of the present compound in aqueous hydrochloric acid solution was parenterally administered to cynomolgus monkey. 5 minutes, 15 minutes, 30 minutes, 1 hour, 2 hours, 4 hours, 6 hours, and 24 hours after the administration, the blood was collected. The plasma was obtained from the collected blood, the drug concentration in the plasma was measured with a LC-MS, and the monkey distribution volume was calculated from the transition of the concentrations. The unbound fraction rate of the present compound in serum of human and monkey was measured by equilibrium dialysis method.\nUsing the monkey distribution volume, the unbound fraction rate in serum of human and monkey, and the result of the metabolic stability of human liver microsome which was obtained in Test 3-1, the half-life in human was calculated according to the formula below. “Human distribution volume”=“monkey distribution volume”×“unbound fraction rate in serum of human”/“unbound fraction rate in serum of monkey” “Human hepatic clearance”=(“human hepatic blood flow”×“unbound fraction rate in serum of human”×56.7×“metabolic stability of human liver microsome”)/(“human hepatic blood flow”+“unbound fraction rate in serum of human”×56.7×“metabolic stability of human liver microsome”) “Half-life in human”=0.693×“human distribution volume”/“human hepatic clearance”"}, "ICR male mouse": {"test_system": "ICR male mouse", "assay": "Test 7: marble-burying behavior test", "assay_type": "in vivo", "protocol": "Test 7: Marble-Burying Behavior Test\nThe effect of the present compound for obsessive-compulsive disorder-like behavior was evaluated in a manner mentioned below.\n450-500 g of paper floorcloth was beded in a plastic cage (floor area: 778 cm^2), and 20 glass marbles were set on the paper floorcloth at regular intervals. To a 5-week-old ICR male mouse, the present compound was intraperitoneally administered with saline solution. 15 minutes after the administration, the mouse was made to softly enter the corner of the cage and move freely in the cage for 15 minutes. Then the mouse was taken out from the cage. The number of the marbles that were buried in the floorcloth was counted. The numbers in the solvent-administration group and the present compound-administration group were compared to be statistically processed."}, "[5]": {"details": "CHO-K1, 100% = 10 μmol/L endogenous ligand"}, "[6]": {"details": "CHO-K1 cell, aequorin luminescence"}}, "data": [{"smiles": "O=C(NCCN1CCC(c2cccc(C(F)(F)F)n2)CC1)C1CCC(F)(F)CC1", "note": "[Example 1, 4,4-Difluoro-N-(2-{4-[6-(trifluoromethyl)pyridin-2-yl]piperidin-1-yl}ethyl)cyclohexane-carboxamide]", "values": [{"measurement": "Ki", "setting": "human D2 receptor", "result": 1.14, "unit": "µM"}, {"measurement": "decrease of the immobility time for the solvent-administration group", "setting": "Wistar male rat", "result": 74.7, "unit": "%"}, {"measurement": "Metabolic stability of human liver microsome", "setting": "[1]", "result": 0.073, "unit": "mL/min/mg protein"}, {"measurement": "Emax", "setting": "human D4 receptor; [5]", "result": 67, "unit": "%"}, {"measurement": "EC50", "setting": "human D4 receptor; [6]", "result": 0.0119, "unit": "µM"}, {"measurement": "Ki", "setting": "human 5-HT1A receptor [2]", "result": 0.0004, "unit": "µM"}, {"measurement": "Emax", "setting": "human 5-HT1A receptor [3]; [5]", "result": 96, "unit": "%"}, {"measurement": "EC50", "setting": "human 5-HT1A receptor [3]; [6]", "result": "< 0.01", "unit": "µM"}, {"measurement": "half-life", "setting": "[4]", "result": 11, "unit": "h"}, {"measurement": "enhancement effect of decreasing the number of the buried marbles compared with single administration of escitalopram", "setting": "ICR male mouse; combination with escitalopram, 0.3 mg/kg administration", "result": 43.8, "unit": "%"}, {"measurement": "decrease of the buried marbles for the solvent-administration group", "setting": "ICR male mouse; intraperitoneal, 0.5 mg/kg administration", "result": 44.8, "unit": "%"}]}]}
